Values joined by “and” are separate entries in the source; they are usually repeats but may differ in a detail not shown here. Identical values can stand only once. Like-named read-outs stand apart in the source and are kept apart here.
Assays:
[1] = test system: SARS-CoV-2; assay type: in vivo, Syrian golden hamster; details: for Infectious virus in the lung (TCID50), Copy number, individual animal / Infectious virus in the lung (TCID50), Log 10, individual animal / Viral load (viral RNA) in the lung, Copy number, individual animal / Viral load (viral RNA) in the lung, Log 10, individual animal / Infectious virus in the lung (TCID50), average Log 10 / Infectious virus in the lung (TCID50), median Log 10 / Viral load (viral RNA) in the lung, average Log 10 / Viral load (viral RNA) in the lung, median Log 10: 250mg/kg/ BID; for Infectious virus in the lung (TCID50), average Log 10 / Infectious virus in the lung (TCID50), median Log 10 / Viral load (viral RNA) in the lung, average Log 10 / Viral load (viral RNA) in the lung, median Log 10: n=5
[2] = Post-exposure Syrian golden hamster model, body weight; details: in vivo
[3] = test system: SARS-CoV-2 (USA-WA1/2020); parameters: species or system Syrian golden hamster; details: hamster, in vivo

CC(C)(C)[C@H](NC(=O)C(F)(F)F)C(=O)N1C[C@H]2[C@@H]([C@H]1C(=O)N[C@H](C#N)C[C@@H]1CCNC1=O)C2(C)C [nirmatrelvir, reference compound]
Infectious virus in the lung (TCID50), Copy number, individual animal ([1]; 10 h post exposure): 2.74E+02 and 1.40E+02 and 3.86E+02 | Infectious virus in the lung (TCID50), Log 10, individual animal ([1]; 10 h post exposure): 2.44 Log 10 and 3.68 Log 10 and 2.14 Log 10 and 3.67 Log 10 and 2.59 Log 10 | Viral load (viral RNA) in the lung, Copy number, individual animal ([1]; 10 h post exposure): 3.26E+07 and 1.08E+07 and 4.11E+07 and 4.76E+07 and 5.79E+06 | Viral load (viral RNA) in the lung, Log 10, individual animal ([1]; 10 h post exposure): 7.51 Log 10 and 7.03 Log 10 and 7.61 Log 10 and 7.68 Log 10 and 6.76 Log 10 | Infectious virus in the lung (TCID50), average Log 10 ([1]; 10 h post exposure): 2.90 Log 10 | Infectious virus in the lung (TCID50), median Log 10 ([1]; 10 h post exposure): 2.59 Log 10 | Viral load (viral RNA) in the lung, average Log 10 ([1]; 10 h post exposure): 7.32 Log 10 | Viral load (viral RNA) in the lung, median Log 10 ([1]; 10 h post exposure): 7.51 Log 10 | Infectious virus in the lung (TCID50), Copy number, individual animal ([1]; 24 h post exposure): 3.74E+03 and 5.43E+02 and 1.15E+04 and 7.40E+03 | Infectious virus in the lung (TCID50), Log 10, individual animal ([1]; 24 h post exposure): 3.57 Log 10 and 2.74 Log 10 and 4.06 Log 10 and 3.67 Log 10 and 3.87 Log 10 | Viral load (viral RNA) in the lung, Copy number, individual animal ([1]; 24 h post exposure): 4.02E+07 and 9.08E+07 and 1.10E+07 and 3.49E+07 and 2.71E+07 | Viral load (viral RNA) in the lung, Log 10, individual animal ([1]; 24 h post exposure): 7.60 Log 10 and 7.96 Log 10 and 7.04 Log 10 and 7.54 Log 10 and 7.43 Log 10 | Infectious virus in the lung (TCID50), average Log 10 ([1]; 24 h post exposure): 3.58 Log 10 | Infectious virus in the lung (TCID50), median Log 10 ([1]; 24 h post exposure): 3.67 Log 10 | Viral load (viral RNA) in the lung, average Log 10 ([1]; 24 h post exposure): 7.52 Log 10 | Viral load (viral RNA) in the lung, median Log 10 ([1]; 24 h post exposure): 7.54 Log 10 | Infectious virus in the lung (TCID50), Copy number, individual animal ([1]; 48 h post exposure): 5.70E+02 and 4.90E+02 and 1.00E+02 and 6.63E+02 and 1.50E+03 | Infectious virus in the lung (TCID50), Log 10, individual animal ([1]; 48 h post exposure): 2.76 Log 10 and 2.69 Log 10 and 2.00 Log 10 and 2.82 Log 10 and 3.17 Log 10 | Viral load (viral RNA) in the lung, Copy number, individual animal ([1]; 48 h post exposure): 1.41E+08 and 2.05E+07 and 3.56E+08 and 4.63E+07 and 6.23E+07 | Viral load (viral RNA) in the lung, Log 10, individual animal ([1]; 48 h post exposure): 8.15 Log 10 and 7.31 Log 10 and 8.55 Log 10 and 7.67 Log 10 and 7.79 Log 10 | Infectious virus in the lung (TCID50), average Log 10 ([1]; 48 h post exposure): 2.69 Log 10 | Infectious virus in the lung (TCID50), median Log 10 ([1]; 48 h post exposure): 2.76 Log 10 | Viral load (viral RNA) in the lung, average Log 10 ([1]; 48 h post exposure): 7.89 Log 10 | Viral load (viral RNA) in the lung, median Log 10 ([1]; 48 h post exposure): 7.79 Log 10 | reduction of lung viral RNA load and infectious virus (in words) ([1]; post-exposure, 250 mg per kg BID): not significant | Average body weight change (%) on day 4 compared to day 0 [2]: -2.756% and -3.747% and -5.087% | Infectious SARS-CoV2 virus in the lung, Avg [3]: 4651963 PFU/g Lung | Infectious SARS-CoV2 virus in the lung, Log10, Avg [3]: 5.697 Log10 PFU/g Lung | SARS-CoV2 viral load (viral RNA) in the lung, Avg [3]: 46452968 RNA copies/mL | SARS-CoV2 viral load (viral RNA) in the lung, Log10, Avg [3]: 6.876 Log10 RNA copies/mL

Reference: publication PMC11981937 (Nature, 2025)
